From the CheMixHub ionic liquid set

Experiment: xn = mol fraction of the nth substance listed

OC1OC[C@@H](O)[C@H](O)[C@H]1O (some centres undefined) + O + CCCCCCCCn1cc[n+](C)c1.[Br-]
298.15 K, 101 kPa
Conditions | viscosity [mPa·s]
x1 = 0.0001923, x3 = 0.001831 | 0.966
x1 = 0.0001932, x3 = 0.003598 | 1.027
x1 = 0.0002045, x3 = 0.00713 | 1.178
x1 = 0.0002136, x3 = 0.005442 | 1.104
x1 = 0.0003697, x3 = 0.00183 | 0.97
x1 = 0.0003826, x3 = 0.003597 | 1.03
x1 = 0.0004154, x3 = 0.005441 | 1.11
x1 = 0.00056, x3 = 0.00183 | 0.976
x1 = 0.0005832, x3 = 0.003596 | 1.035
x1 = 0.000592, x3 = 0.00544 | 1.115
x1 = 0.0006052, x3 = 0.007127 | 1.189
x1 = 0.0007465, x3 = 0.00183 | 0.981
x1 = 0.0007705, x3 = 0.003595 | 1.04
x1 = 0.0007917, x3 = 0.005439 | 1.121
x1 = 0.0008153, x3 = 0.007126 | 1.195
x1 = 0.0009407, x3 = 0.003595 | 1.044
x1 = 0.0009495, x3 = 0.001829 | 0.985
x1 = 0.0009701, x3 = 0.005438 | 1.127
x1 = 0.0009957, x3 = 0.007124 | 1.202
x1 = 0.001112, x3 = 0.001829 | 0.989
x1 = 0.001145, x3 = 0.003594 | 1.051
x1 = 0.00115, x3 = 0.005437 | 1.13
x1 = 0.001216, x3 = 0.007123 | 1.207
x1 = 0.001289, x3 = 0.001829 | 0.993
x1 = 0.001332, x3 = 0.003593 | 1.054
x1 = 0.00134, x3 = 0.005436 | 1.135
x1 = 0.00141, x3 = 0.007121 | 1.213
x1 = 0.001459, x3 = 0.001828 | 0.996
x1 = 0.00151, x3 = 0.003593 | 1.059
x1 = 0.00153, x3 = 0.005435 | 1.14
x1 = 0.001602, x3 = 0.00712 | 1.219
x1 = 0.001647, x3 = 0.001828 | 1
x1 = 0.001708, x3 = 0.003592 | 1.065
x1 = 0.001741, x3 = 0.005433 | 1.147
x1 = 0.001813, x3 = 0.007119 | 1.224

OC1OC[C@@H](O)[C@H](O)[C@H]1O (some centres undefined) + O + CCCCCC[n+]1ccn(C)c1.[Br-]
298.15 K, 101 kPa
Conditions | viscosity [mPa·s]
x1 = 0.0001973, x3 = 0.001843 | 0.957
x1 = 0.000198, x3 = 0.003653 | 1.007
x1 = 0.0002099, x3 = 0.005424 | 1.054
x1 = 0.0002123, x3 = 0.007151 | 1.106
x1 = 0.0003779, x3 = 0.001843 | 0.961
x1 = 0.0003808, x3 = 0.003652 | 1.011
x1 = 0.0003928, x3 = 0.005423 | 1.059
x1 = 0.0004009, x3 = 0.00715 | 1.112
x1 = 0.0005548, x3 = 0.001843 | 0.965
x1 = 0.000588, x3 = 0.003652 | 1.016
x1 = 0.0005968, x3 = 0.005422 | 1.064
x1 = 0.0005973, x3 = 0.007149 | 1.119
x1 = 0.000739, x3 = 0.001842 | 0.97
x1 = 0.0007594, x3 = 0.003651 | 1.02
x1 = 0.0007857, x3 = 0.007147 | 1.124
x1 = 0.0007911, x3 = 0.005421 | 1.069
x1 = 0.0009323, x3 = 0.001842 | 0.974
x1 = 0.0009495, x3 = 0.00365 | 1.025
x1 = 0.0009642, x3 = 0.00542 | 1.074
x1 = 0.0009957, x3 = 0.007146 | 1.13
x1 = 0.001116, x3 = 0.001842 | 0.979
x1 = 0.001147, x3 = 0.005419 | 1.079
x1 = 0.001153, x3 = 0.003649 | 1.029
x1 = 0.001184, x3 = 0.007144 | 1.134
x1 = 0.0013, x3 = 0.001841 | 0.982
x1 = 0.001326, x3 = 0.003649 | 1.034
x1 = 0.001352, x3 = 0.005418 | 1.083
x1 = 0.001359, x3 = 0.007143 | 1.138
x1 = 0.001475, x3 = 0.001841 | 0.986
x1 = 0.001497, x3 = 0.003648 | 1.039
x1 = 0.001552, x3 = 0.005417 | 1.089
x1 = 0.001588, x3 = 0.007142 | 1.143
x1 = 0.001657, x3 = 0.001841 | 0.99
x1 = 0.001681, x3 = 0.003648 | 1.042
x1 = 0.001708, x3 = 0.005416 | 1.09
x1 = 0.001731, x3 = 0.00714 | 1.148

CCCCn1cc[n+](C)c1C.O=S(=O)([N-]S(=O)(=O)C(F)(F)F)C(F)(F)F + O=C1CCCO1
100 kPa, frequency 0.005 MHz
Conditions | electrical conductivity [S/m]
293.15 K, x2 = 0.1014 | 0.207
293.15 K, x2 = 0.3 | 0.302
293.15 K, x2 = 0.8001 | 1.12
298.15 K, x2 = 0.8996 | 1.3
303.15 K, x2 = 0.3 | 0.451
303.15 K, x2 = 0.9468 | 1.01
308.15 K, x2 = 0.3 | 0.538
308.15 K, x2 = 0.7012 | 1.28
313.15 K, x2 = 0.1014 | 0.479
313.15 K, x2 = 0.7012 | 1.43
318.15 K, x2 = 0 | 0.51
318.15 K, x2 = 0.7012 | 1.58
323.15 K, x2 = 0 | 0.599

O=S(=O)([N-]S(=O)(=O)C(F)(F)F)C(F)(F)F.[Cs+] + O=S(=O)([N-]S(=O)(=O)C(F)(F)F)C(F)(F)F.[Li+]
100 kPa, frequency 1 MHz, x2 = 0.07
Conditions | electrical conductivity [S/m]
403.1 K | 0.673
413.1 K | 0.898
423.5 K | 1.16
432.7 K | 1.44
442.1 K | 1.77
452.2 K | 2.12
462.6 K | 2.52
473.6 K | 2.94
482.8 K | 3.37
492 K | 3.86
502.1 K | 4.33
512.5 K | 4.85
523.1 K | 5.37
531.3 K | 5.9
542.9 K | 6.41
551.8 K | 7
560.9 K | 7.52
571.1 K | 8.14

100 kPa, x2 = 0.07
Conditions | viscosity [mPa·s]
403.2 K | 97
413.2 K | 69.8
423.7 K | 51.5
432.9 K | 39.2
442.5 K | 27.9
452.5 K | 23
463 K | 18.9
473.9 K | 15.8
483.1 K | 13.1
492.6 K | 11.1
502.5 K | 9.71
512.8 K | 8.54
523.6 K | 7.41
531.9 K | 6.64
543.5 K | 6.03
552.5 K | 5.39
561.8 K | 5.01
